For one data set, the system named is human erythrocytes. Description: Hemolysis assay. It is filed as cell-based. The procedure: In the context of the present invention, the test whether a peptide has a hemolytic activity which is lower than the hemolytic activity of peptide OP-145 (acetyl-[…]-amide (SEQ ID NO: 50)) may be performed according to any method known in the art, as for instance disclosed in Avrahami & Shai, 2004. In particular, a 0.5% erythrocyte solution in phosphate-buffered saline is exposed to the respective peptide (e.g. at 1 μM or 10 μM or 20 μM or 50 μM) at 37° C. for 1 h; hemolysis is determined by measuring optical density of the cell supernatants at 415 nm. More specifically, the assay may be performed as follows: Whole venous blood of healthy volunteers is collected in citrate tubes. Erythrocytes are isolated by centrifuging the blood for 10 min at 2,000×g and subsequently washing twice in PBS. […] After 1 h at 37° C. under static conditions, the erythrocyte suspensions are centrifuged and the optical density of the supernatants is determined at 415 nm. The percentage of hemolysis may be calculated relative to a positive control (e.g. 1% Triton X-100).
Hemolysis assay: Whole venous blood of healthy volunteers was collected in citrate tubes. […] After 1 h at 37° C. under static conditions, the erythrocyte suspensions were centrifuged and the optical density of the supernatants was determined at 415 nm. The percentage of hemolysis was calculated relative to the positive control (1% Triton X-100).

Data set [1] deals with Gram-negative and Gram-positive bacteria. The experiment in a line: Antimicrobial activity, overall statement. It is filed as cell-based. As to conditions: against both Gram-negative and Gram-positive bacteria. The procedure:
(§1) Antimicrobial activity: S. aureus JAR060131, Enterococcus hirae ATCC 10541, Bacillus subitlis 168C trpC2, Escherichia coli ATCC25992 or their variants were cultured to mid-logarithmic phase in tryptic soy broth, brain heart infusion (BHIB), mueller hinton (MHB) or luria broth (LB) and washed once with PBS. Approximately 1×10^6 CFU/ml of PBS were incubated with peptide (final concentrations: 0-102.4 μM) for 0-2 h at 37° C. under shaking conditions. Thereafter, the number of viable bacteria was determined by plating on diagnostic sensitivity agar. Antimicrobial activity is expressed as the 99.9% killing concentration (LC99.9), i.e., the lowest peptide concentration that killed ≥99.9% of bacteria.

Another data set relates to E. coli ATCC25992. The experiment in a line: Antimicrobial activity (LC99.9), killing in PBS with plating. As to conditions: Gram-negative bacteria, lowest peptide concentration that killed ≥99.9% of bacteria, 37° C. The format is cell-based, Escherichia coli. The procedure:
(§2) In the context of the present invention, the test whether a peptide has an antimicrobial activity which is higher than the antimicrobial activity of peptide OP-145 (acetyl-[…]-amide (SEQ ID NO: 50)) may be performed according to any method known in the art, as for instance disclosed in Balouiri et al, 2016. In particular, S. aureus JAR060131, Enterococcus hirae ATCC 10541, Bacillus subitlis 168C trpC2 or Escherichia coli ATCC25992 are cultured to mid-logarithmic phase in tryptic soy broth, brain heart infusion (BHIB), mueller hinton (MHB) or luria broth (LB) and washed once with PBS. […] Thereafter, the number of viable bacteria is determined by plating on diagnostic sensitivity agar. Antimicrobial activity is expressed as the 99.9% killing concentration (LC99.9), i.e., the lowest peptide concentration that killed ≥99.9% of bacteria. […]
(§3) Antimicrobial activity: S. aureus JAR060131, Enterococcus hirae ATCC 10541, Bacillus subitlis 168C trpC2, Escherichia coli ATCC25992 or their variants were cultured to mid-logarithmic phase in tryptic soy broth, brain heart infusion (BHIB), mueller hinton (MHB) or luria broth (LB) and washed once with PBS. […] Thereafter, the number of viable bacteria was determined by plating on diagnostic sensitivity agar. Antimicrobial activity is expressed as the 99.9% killing concentration (LC99.9), i.e., the lowest peptide concentration that killed ≥99.9% of bacteria.

A further data set has as its system B. subtilis 168 trpC2. The data set is described as above. The format is cell-based, Bacillus subtilis. As to conditions: Gram-positive bacteria, lowest peptide concentration that killed ≥99.9% of bacteria, 37° C. The procedure: as §2, §3
Data set [2] relates to multi-resistant clinical isolates. The experiment in a line: Bactericidal activity against multi-resistant clinical isolates (FIG. 4). It is filed as cell-based. As to conditions: 1 h treatment with peptides in presence of PBS. The procedure: Bactericidal activity was tested (for 1 h treatment with peptides) in presence of PBS according to de Breij et al., 2018. Bactericidal activity is expressed as LC99.9%—is the lethal concentration causing death in 99.9% cells. Results are ranges of at least three independent experiments. If no range is given, then LC99.9 values were identical in all experiments.
as §1

For the sequence IGKEFKRIVERKWRFLRELVRPLR [SEQ ID NO: 2], the “lysis of human erythrocytes” value in the data set with human erythrocytes is reported as “did not lyse the human erythrocytes”. In addition, the “antimicrobial activity compared to OP-145I12K” value in data set [1] is “improved antimicrobial activity”. Further, the LC99.9% in the data set on E. coli ATCC25992 was determined as 6.4 µM; in the data set on B. subtilis 168 trpC2 it was 3.2 µM.

Take IGKKFKRIVRRKKRFLRKLVRPLR [SEQ ID NO: 3]: the “lysis of human erythrocytes” value in the data set on human erythrocytes was “did not lyse the human erythrocytes”. The “antimicrobial activity compared to OP-145I12K” value in data set [1] is recorded as “improved antimicrobial activity”. Besides, in data set [2], the “antimicrobial (bactericidal) activity against multi-resistant clinical isolates” value is on record as “Excellent antimicrobial activity”. In addition, the LC99.9% with E. coli ATCC25992 and in the data set on B. subtilis 168 trpC2 was 3.2 µM each time.

The values are drawn from patent US20260285909A1, “PEPTIDES FOR ANTIMICROBIAL THERAPY” (Karl-Franzens-Universität Graz, priority 2023, published 2026).
